In ChEMBL document CHEMBL4000222, “Synthetic strategy for increasing solubility of potential FLT3 inhibitor thieno[2,3-d]pyrimidine derivatives through structural modifications at the C2 and C6 positions” (Bioorg Med Chem Lett, 2017):
Values after ≈ are worked out from the molar mass of the structure shown.

What was measured:
[1] = Stability in human liver microsomes assessed as compound remaining after 30 mins; format: ADME, microsome; conditions: read-out: Stability
[2] = Stability in rat liver microsomes assessed as compound remaining after 30 mins; format: ADME, microsome; conditions: read-out: Stability
[3] = Solubility of the compound in phosphate buffered saline kept in shaker for 1 hr; format: physicochemical
[4] = Solubility of the compound in distilled water kept in shaker for 1 hr; format: physicochemical
HL-60 = assay: cells; conditions: Homo sapiens
Description: Growth inhibition of human HL60 cells harboring wild-type FLT3 by CCK8 assay

K562 = assay: cells; conditions: Homo sapiens
Description: Growth inhibition of FLT3 null human K562 cells by CCK8 assay

[5] = biological target: T1, Receptor-type tyrosine-protein kinase FLT3 (Homo sapiens, UniProt P36888); assay: biochemical; format: cell-based
T1 sequence (P36888 whole entry): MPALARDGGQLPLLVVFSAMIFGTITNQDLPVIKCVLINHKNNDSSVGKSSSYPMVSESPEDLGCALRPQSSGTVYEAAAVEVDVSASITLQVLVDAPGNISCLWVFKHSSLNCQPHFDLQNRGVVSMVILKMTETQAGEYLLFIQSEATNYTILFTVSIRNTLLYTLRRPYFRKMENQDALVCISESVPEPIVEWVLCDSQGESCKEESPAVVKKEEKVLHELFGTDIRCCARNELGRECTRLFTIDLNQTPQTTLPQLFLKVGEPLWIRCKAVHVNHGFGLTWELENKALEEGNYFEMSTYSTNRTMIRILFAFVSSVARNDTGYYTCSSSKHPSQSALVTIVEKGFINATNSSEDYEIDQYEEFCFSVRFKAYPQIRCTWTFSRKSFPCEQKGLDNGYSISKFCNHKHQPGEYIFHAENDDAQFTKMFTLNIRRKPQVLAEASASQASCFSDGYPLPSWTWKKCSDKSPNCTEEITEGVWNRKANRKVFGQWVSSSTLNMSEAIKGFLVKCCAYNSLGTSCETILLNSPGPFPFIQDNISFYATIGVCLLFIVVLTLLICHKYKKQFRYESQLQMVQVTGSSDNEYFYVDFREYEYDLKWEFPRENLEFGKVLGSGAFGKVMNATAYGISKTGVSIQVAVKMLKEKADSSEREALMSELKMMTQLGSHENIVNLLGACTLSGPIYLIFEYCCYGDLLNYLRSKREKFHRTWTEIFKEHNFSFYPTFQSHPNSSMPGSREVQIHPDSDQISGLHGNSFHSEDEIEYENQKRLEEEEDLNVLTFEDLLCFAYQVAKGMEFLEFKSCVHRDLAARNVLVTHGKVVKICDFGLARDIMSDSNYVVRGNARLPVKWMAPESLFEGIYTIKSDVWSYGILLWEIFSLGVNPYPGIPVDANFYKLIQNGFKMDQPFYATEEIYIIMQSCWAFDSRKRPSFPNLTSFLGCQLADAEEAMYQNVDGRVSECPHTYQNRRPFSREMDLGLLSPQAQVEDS
Description: Inhibition of N-terminal GST-tagged recombinant human wild-type FLT3 (564 to end residues) expressed in baculovirus infected sf21 cells using Abltide as substrate in presence of [gamma33P]ATP after 10 mins by scintillation counting method

[6] = biological target: Receptor-type tyrosine-protein kinase FLT3 (Homo sapiens, UniProt P36888, D835Y); assay: biochemical; format: cell-based
Description: Inhibition of N-terminal GST-tagged recombinant human wild-type FLT3 (564 to end residues) D835Y mutant expressed in baculovirus infected sf21 cells using Abltide as substrate in presence of [gamma33P]ATP after 10 mins by scintillation counting method

THP-1 = assay: cells; conditions: Homo sapiens
Description: Growth inhibition of human THP1 cells harboring wild-type FLT3 by XTT assay

MV4-11 = assay: cells; conditions: Homo sapiens
Description: Growth inhibition of human MV4-11 cells harboring FLT3-ITD mutant by XTT assay

Compound	remaining at 0.5 h [1]	remaining at 0.5 h [2]	solubility at 1 h [3]	solubility at 1 h [4]	GI50 (HL-60)	GI50 (K562)	IC50 [5]	IC50 [6]	GI50 (THP-1)	GI50 (MV4-11)
CC1=CC(=O)N(Nc2nc(-c3cccs3)nc3sc(C)c(C)c23)C1=O	32.4%	22.7%	1.04 µM (≈ 0.385 µg/mL)	1.28 µM (≈ 0.474 µg/mL)	> 10 µM	102 nM				
CC1=CC(=O)N(Nc2nc(-c3cccs3)nc3sc(C)cc23)C1=O	58.8%	32.6%	0.36 µM (≈ 0.128 µg/mL)	5.84 µM (≈ 2.08 µg/mL)	> 10 µM	2570 nM				
CNCCOc1ccc(-c2sc3nc(-c4cccs4)nc(NN4C(=O)C=C(C)C4=O)c3c2C)cc1							11.1 nM			
CC1=CC(=O)N(Nc2nc(-c3ccc[nH]3)nc3sc(C)cc23)C1=O	40.4%	39.1%	0.59 µM (≈ 0.2 µg/mL)	10.1 µM (≈ 3.42 µg/mL)			135 nM	117 nM		
CC1=CC(=O)N(Nc2nc(-c3ccc(F)cc3)nc3sc(C)cc23)C1=O	42.6%	8.58%	< 0.14 µM	< 0.14 µM			274 nM	266 nM		
CC1=CC(=O)N(Nc2nc(-c3ccc[nH]3)nc3sc(C)c(C)c23)C1=O	37.1%	39.7%	0.16 µM (≈ 0.0565 µg/mL)	0.87 µM (≈ 0.307 µg/mL)	> 10 µM	1100 nM	79.3 nM	89.2 nM	339 nM	452 nM
CC1=CC(=O)N(Nc2nc(-c3ccc(F)cc3)nc3sc(C)c(C)c23)C1=O	20.7%	19.6%	< 0.14 µM	< 0.14 µM			211 nM	172 nM		
CC1=CC(=O)N(Nc2nc(-c3ccco3)nc3sc(C)cc23)C1=O	35.1%	34.8%	28.5 µM (≈ 9.69 µg/mL)	40.6 µM (≈ 13.8 µg/mL)			171 nM	129 nM		
CC1=CC(=O)N(Nc2nc(-c3nccs3)nc3sc(C)cc23)C1=O	27.5%	14.5%	2.8 µM (≈ 1 µg/mL)	1.43 µM (≈ 0.511 µg/mL)	> 10 µM	1280 nM	33.4 nM	33.9 nM	961 nM	1350 nM
CC1=CC(=O)N(Nc2nc(-c3ccco3)nc3sc(C)c(C)c23)C1=O	10.9%	26.2%	12.4 µM (≈ 4.38 µg/mL)	24.6 µM (≈ 8.73 µg/mL)			100 nM	102 nM		
CC1=CC(=O)N(Nc2nc(-c3nccs3)nc3sc(C)c(C)c23)C1=O	45.7%	17.7%	36.8 µM (≈ 13.7 µg/mL)	25.3 µM (≈ 9.41 µg/mL)	> 10 µM	532 nM	16 nM	21.4 nM	141 nM	216 nM
